Assay results: publication PMC11203978, “Discovery of Di(het)arylmethane and Dibenzoxanthene Derivatives as Potential Anticancer Agents” (International Journal of Molecular Sciences, 2024)

What was measured:
Format in all cases: cell-based, human
PA-1 cells = assay: Cell glycolysis, Seahorse XF Glycolysis Stress Test (ECAR); conditions: 100 μM
Excerpt: To investigate whether the cytotoxicity of 5a and 6a is related to their effects on metabolism, we quantified their inhibition of glycolysis in human ovarian teratocarcinoma PA-1 cells using Seahorse technology, which allows the rapid assessment of glycolytic metabolism in cells using a proton efflux rate assay (ECAR). It is well known that glucose in cells is converted to pyruvate and then either to lactate in the cytoplasm or CO2 and water in the mitochondria. As glucose is converted to lactate, protons are released into the extracellular environment to maintain intracellular pH homeostasis. This extracellular acidification is measured in real time and provides insight into the rate of glycolytic proton efflux. PA-1 cells are used for the study of glycolysis since a pronounced deregulation of cellular energy is observed in the case of ovarian cancer, mediating the growth, invasion and migration of tumor cells.
Measuring ECAR under these conditions provides the parameters presented in Figure 9c,d: the level of glycolysis and glycolytic capacity.
Determination of cell glycolysis. Cell glycolysis was measured with Seahorse XF Glycolysis Stress Test Kit and Seahorse Bioscience XF96 Extracellular Flux Analyzer (Agilent Technology, Boston, MA, USA). […] ECAR levels were examined and analyzed using Seahorse Bioscience XF96 Extracellular Flux Analyzer. […]

HuTu 80 cells = assay: Induction of apoptosis, flow cytometry (annexin V-Alexa Fluor 647 / propidium iodide); conditions: IC50/2 and IC50, 24 h
Description: The ability of the new compounds, proposed as antitumor agents, to induce cell death via apoptosis is a critical feature for their potential use in therapy. The apoptosis-inducing effects of lead compounds were investigated using flow cytometry at IC50/2 and IC50 concentrations on the HuTu 80 cell line (Figure 6A).
Cell Culture. HuTu 80 cells at 1 × 10^6 cells/well in a final volume of 2 mL were seeded into six-well plates. After 48 h of incubation, various concentrations of lead compounds were added to wells.
Cell Apoptosis Analysis. The cells were harvested at 2000 rpm for 5 min and were then washed twice with ice-cold PBS, and resuspended in binding buffer. Next, the samples were incubated with 5 μL of annexin V-Alexa Fluor 647 (Sigma-Aldrich, St Louis, MO, USA) and 5 μL of propidium iodide for 15 min at room temperature in the dark. Finally, the cells were analyzed using flow cytometry (Guava easy Cyte, MERCK, Rahway, NJ, USA) within 1 h. The experiments were repeated three times.

M-HeLa = assay: MTT cytotoxicity, M-HeLa; conditions: M-HeLa
Excerpt: Cells and Materials. For the experiments, we used tumor cell cultures M-HeLa clone 11 (epithelioid carcinoma of the cervix, subline HeLa, clone M-HeLa), HuTu 80, human duodenal adenocarcinoma, Hep-2, human epithelial cells, SH-SY5Y, human neuroblast-like cells, A549, human lung adenocarcinoma, PA-1, human ovarian teratocarcinoma and MCF-7, a human mammary ductal adenocarcinoma from the collection of the Institute of Cytology, Russian Academy of Sciences (St. Petersburg, Russia); human liver cells (Chang liver) were from the collection and the Research Institute of Virology of the Russian Academy of Medical Sciences (Moscow, Russia).
MTT Assay. The cytotoxic effect on cells was determined using the colorimetric method of cell proliferation—the MTT test. NADP-H-dependent cellular oxidoreductase enzymes can, under certain conditions, reflect the number of viable cells. These enzymes reduce the tetrazolium dye (MTT) 3-(4,5-dimethylthiazol-2-yl)-2,5-diphenyl-tetrazolium bromide to insoluble blue-violet formazan, which crystallizes inside the cell. The amount of formed formazan is proportional to the number of cells with active metabolism. Cells were seeded on a 96-well Nunc plate at a concentration of 5 × 10^3 cells per well in a volume of 100 μL of medium and cultured in a CO2 incubator at 37 °C until a monolayer was formed. After the nutrient medium was removed, 100 µL of the test drug solutions at the given dilutions were added to the wells, which were prepared directly in the nutrient medium with the addition of 5% DMSO to improve solubility. After 48 h of incubation of the cells with the tested compounds, the nutrient medium was removed from the plates and 100 µL of the nutrient medium without serum with MTT at a concentration of 0.5 mg/mL was added and incubated for 4 h at 37 °C. Formazan crystals were added 100 µL of DMSO to each well. Optical density was recorded at 540 nm on an Invitrologic microplate reader (Novosibirsk, Russia). The experiments for all compounds were repeated three times.
Statistical analysis. The IC50 values were calculated using the MLA–Quest Graph™ IC50 Calculator (AAT Bioquest, Inc., Sunnyvale, CA, USA), 14 February 2022. Statistical analysis was performed with the Mann–Whitney test (p < 0.05). Tabular and graphical data contain averages and standard error.

O=C(C[P+](c1ccccc1)(c1ccccc1)c1ccccc1)NCCC1c2c(ccc3ccccc23)Oc2ccc3ccccc3c21 [Compound 6a]
glycolysis (ECAR) at maximum concentration (in words) (PA-1 cells): completely blocking glycolysis
apoptosis-inducing effect (in words) (HuTu 80 cells): dose-dependent apoptosis
IC50 (M-HeLa; Homo sapiens, MTT, 48 h incubation, read-out: IC50 (µM) Cancer Cell Lines M-HeLa): 11 ± 8.7 µM
times more effective than the reference drug sorafenib (M-HeLa): three times more effective
